In patent US7666913B2, “Method of treating or preventing osteoporosis using isotaxiresinol derived from Taxus yunnanensis” (Kotosugi Inc., priority 2004, dated 2010):

Assays:
Type in all cases: in vivo, rat
[1] = test system: ovariectomized female Wistar rats, proximal tibia bone; assay: Antiosteoporotic activity in ovariectomized rats: pQCT of proximal tibia (BMC, BMD, cortical geometry, bone strength indices); conditions: for Cortical bone thickness as % of that of the Sham group / Bone strength index PSSI / Bone strength index XSSI / Bone strength index YSSI / Cancellous bone BMC / Cancellous bone BMD / Cortical bone BMC / Cortical bone BMD / Cortical bone thickness / Edno. C. (endosteal circumference) / Peri. C. (periosteal circumference) / Total bone BMC / Total bone BMD: OVX rats; for Bone strength index PSSI / Bone strength index XSSI / Bone strength index YSSI / Cancellous bone BMC / Cancellous bone BMD / Cortical bone BMC / Cortical bone BMD / Cortical bone thickness / Edno. C. (endosteal circumference) / Peri. C. (periosteal circumference) / Total bone BMC / Total bone BMD: 6 weeks, 1 mm under growth plate
Experimental: Antiosteoporotic Activity of ITX was Assessed by Using Rats. Each of the animal groups for experiments included comprised 10 rats. Ovaries were removed from female Wistar rats (age: 8 months, weight: 260-330 g). ITX, suspended in 1% water solution of carboxymethl cellulose sodium salt, was orally administered to rats of one group in a dose of 50 mg/kg (weight of rat) and to rats of another group in a dose of 100 mg/kg (weight of rat) 6 times per week after 2 weeks of the removal. […] An OVX (ovariectomized) group was prepared as negative control. Furthermore, another group was sham-operated as a Sham group. The OVX group and the Sham group were only fed, with no compound or drug given. Tibial characteristics of the rats, which were anesthetized in advance, were measured by means of peripheral quantitative computed tomography (pQCT) 6 weeks after the initiation of the administration (i.e., 8 weeks after the removal of the ovaries). In the measurement, the left tibiae were scanned with a pQCT system XCT Research M (manufactured by Stratec Medizintechnik GmbH, Germany). Voxel size was set to 0.08 mm, slice thickness was set to 0.5 mm, and cortical BMD threshold was set to 464 mg/cm^3. Furthermore, peel mode was set to 20 to divide total bone into cortical bone or cancerous bone. A growth plate was identified after preliminary scanning (scout scan), and then a reference position was identified. Next, transverse image sets of four cross-sectional slices were scanned at a region of 1 to 5 mm under the growth plate. Cortical BMC and BMD and cancellous BMC and BMD, thickness of cortical bone, and periosteal circumference and endosteal circumference of cortical bone were measured at a separation mode of 3 and a contour mode of 2. Three indices of bone strength (X-, Y-, and Polar-axes) were also measured, and the data obtained were processed by XCT Research Series Manual Software Version 5.4, in which case the standard cortical BMD was set to 1,200 mg/cm^3. […] The figures in the total bone columns show the values of the whole bone obtained by measuring cancellous bone and cortical bone together. […] The presentation of t-test results applies to Table 4 as well. In the experiment, three bone strength indexes were measured: PSSI (polar-axis strength index), XSSI (X-axis strength index), and YSSI (Y-axis strength index).

[2] = test system: ovariectomized female Wistar rats, tibiae and femora; assay: Antiosteoporotic activity in ovariectomized rats: weight and length of tibiae and femora; conditions: for Femur Length / Femur Weight / Tibia Length / Tibia Weight: OVX rats, mean ± SD
Experimental: Each of the animal groups for experiments included comprised 10 rats. Ovaries were removed from female Wistar rats (age: 8 months, weight: 260-330 g). ITX, suspended in 1% water solution of carboxymethl cellulose sodium salt, was orally administered to rats of one group in a dose of 50 mg/kg (weight of rat) and to rats of another group in a dose of 100 mg/kg (weight of rat) 6 times per week after 2 weeks of the removal. […] An OVX (ovariectomized) group was prepared as negative control. Furthermore, another group was sham-operated as a Sham group. The OVX group and the Sham group were only fed, with no compound or drug given. Furthermore, a tibia, a femur, and a uterus were removed from every rat and then weighted. […] In the table, ITX 100 is a group of the rats which ITX was given to in a dose of 100 mg/kg, and ITX 50 is a group of the rats which ITX was given to in a dose of 50 mg/kg. E2 is a group of the rats which E2 was given to. The figures in each column of the table show averages and standard deviations of the measured values. The presentation of the figures applies to Table 3 and Table 4 as well.

[3] = test system: ovariectomized female Wistar rats; assay: Antiosteoporotic activity in ovariectomized rats: body weight and uterine weight
Experimental: Each of the animal groups for experiments included comprised 10 rats. Ovaries were removed from female Wistar rats (age: 8 months, weight: 260-330 g). ITX, suspended in 1% water solution of carboxymethl cellulose sodium salt, was orally administered to rats of one group in a dose of 50 mg/kg (weight of rat) and to rats of another group in a dose of 100 mg/kg (weight of rat) 6 times per week after 2 weeks of the removal.
An OVX (ovariectomized) group was prepared as negative control. Furthermore, another group was sham-operated as a Sham group. The OVX group and the Sham group were only fed, with no compound or drug given.
Furthermore, a tibia, a femur, and a uterus were removed from every rat and then weighted.

[4] = ITX 50 mg/kg oral, 6 times per week
[5] = ITX 100 mg/kg oral, 6 times per week
[6] = E2 0.1 mg/kg into abdominal cavity

## COc1cc2c(cc1O)[C@H](c1ccc(O)c(O)c1)[C@@H](CO)[C@H](CO)C2 [ITX, isotaxiresinol]
[1]; ITX 50 mg/kg oral
  Cortical BMC compared to the OVX group (in words): inhibition of decrease
  Cortical BMD compared to the OVX group (in words): inhibition of decrease
  Endosteal circumference compared to the OVX group (in words): inhibition of increase
  Increase in PSSI compared to the OVX group: 16.2%
  Increase in XSSI compared to the OVX group: 14.2%
  Increase in YSSI compared to the OVX group: 24.0%
  Periosteal circumference compared to the OVX group (in words): the same level or an increase
  Total BMD compared to the OVX group (in words): inhibition of decrease
  Cortical bone thickness as % of that of the Sham group: 98.3%
  Bone strength index PSSI: 10.35 ± 0.89
  Bone strength index XSSI: 5.15 ± 0.62
  Bone strength index YSSI: 6.45 ± 0.67
  Cancellous bone BMC: 0.99 ± 0.12 mg/mm
  Cancellous bone BMD: 215 ± 25 mg/mL
  Cortical bone BMC: 7.72 ± 0.52 mg/mm
  Cortical bone BMD: 1137 ± 14 mg/mL
  Cortical bone thickness: 0.58 ± 0.03 mm
  Edno. C. (endosteal circumference): 9.92 ± 0.54 mm
  Peri. C. (periosteal circumference): 13.7 ± 0.5 mm
  Total bone BMC: 10.4 ± 0.8 mg/mm
  Total bone BMD: 707 ± 14 mg/mL
[1]; ITX 100 mg/kg oral
  Cancellous BMC compared to the OVX group (in words): inhibition of decrease
  Cortical BMD compared to the OVX group (in words): inhibition of decrease
  Endosteal circumference compared to the OVX group (in words): inhibition of increase
  Periosteal circumference compared to the OVX group (in words): the same level or an increase
  Cortical bone thickness as % of that of the Sham group: 93.2%
  Bone strength index PSSI: 9.34 ± 0.70
  Bone strength index XSSI: 4.77 ± 0.68
  Bone strength index YSSI: 5.71 ± 0.41
  Cancellous bone BMC: 1.04 ± 0.15 mg/mm
  Cancellous bone BMD: 207 ± 28 mg/mL
  Cortical bone BMC: 7.40 ± 0.29 mg/mm
  Cortical bone BMD: 1138 ± 17 mg/mL
  Cortical bone thickness: 0.55 ± 0.03 mm
  Edno. C. (endosteal circumference): 9.97 ± 0.37 mm
  Peri. C. (periosteal circumference): 13.6 ± 0.4 mm
  Total bone BMC: 9.82 ± 0.37 mg/mm
  Total bone BMD: 683 ± 21 mg/mL
[2]; ITX 50 mg/kg oral
  Tibia weight compared with the OVX group (in words): no significant difference
[2]; ITX 100 mg/kg oral
  Femur weight compared with the OVX group (in words): no significant difference
[2]; [4]
  Femur Length: 3.64 ± 0.05 cm
  Femur Weight: 862 ± 64 mg
  Tibia Length: 3.98 ± 0.14 cm
  Tibia Weight: 588 ± 52 mg
[2]; [5]
  Femur Length: 3.59 ± 0.22 cm
  Femur Weight: 897 ± 83 mg
  Tibia Length: 3.97 ± 0.24 cm
  Tibia Weight: 562 ± 95 mg
[3]; ITX 50 mg/kg oral
  Body weight at the end compared to the OVX group (in words): inhibition of increase
[3]; ITX 100 mg/kg oral
  Body weight at the end compared to the OVX group (in words): inhibition of increase
[3]; OVX rats, ITX 50 mg/kg oral, end of the experiment
  Body weight at the end: 318 ± 18 g
[3]; OVX rats, ITX 100 mg/kg oral, end of the experiment
  Body weight at the end: 301 ± 15 g

## C[C@]12CC[C@@H]3c4ccc(O)cc4CC[C@H]3[C@@H]1CC[C@@H]2O [E2, 17β-estradiol, reference compound]
[1]; E2 0.1 mg/kg
  BMC and BMD (total, cancellous, cortical) compared to the OVX group (in words): inhibition of decrease in all but except total BMD and cancellous BMC
  Endosteal circumference compared to the OVX group (in words): inhibition of increase
  Increase in XSSI compared to the OVX group: 15.3%
  Increase in YSSI compared to the OVX group: 23.5%
  Increase in cortical bone thickness compared to the OVX group: 9.8%
  Periosteal circumference compared to the OVX group (in words): a decrease
[1]; [6]
  Cancellous bone BMC: 0.96 ± 0.17 mg/mm
  Cancellous bone BMD: 244 ± 53 mg/mL
  Cortical bone BMC: 7.58 ± 0.48 mg/mm
  Cortical bone BMD: 1143 ± 22 mg/mL
  Cortical bone thickness: 0.56 ± 0.03 mm
  Edno. C. (endosteal circumference): 9.79 ± 0.57 mm
  Peri. C. (periosteal circumference): 13.4 ± 0.6 mm
  Total bone BMC: 10.5 ± 0.7 mg/mm
  Total bone BMD: 723 ± 38 mg/mL
[2]; [6]
  Femur Length: 3.59 ± 0.15 cm
  Femur Weight: 861 ± 65 mg
  Tibia Length: 3.76 ± 0.14 cm
  Tibia Weight: 547 ± 94 mg
[3]; E2 0.1 mg/kg
  Body weight at the end compared to the OVX group (in words): inhibition of increase
[3]; OVX rats, E2 0.1 mg/kg into abdominal cavity, end of the experiment
  Body weight at the end: 299 ± 33 g
[3]; OVX rats, E2 0.1 mg/kg, end of the experiment
  Decrease in uterine weight compared to the Sham group: 48.5%
